In ChEMBL document CHEMBL4421717, “Antagonists and agonists of bitter taste receptors and uses thereof” (2012):

How the values were obtained:
[1] = molecular target: T1, Taste receptor type 2 member 46 (Homo sapiens, UniProt P59540); test: Activity at recombinant human N-terminal rat ST3 receptor-fused TAS2R46 expressed in HEK293T cells co-expressing Galpha16gust44 assessed as activation of 3 uM strychnine-induced intracellular calcium level by FLIPR assay; type: functional, cell-based
T1 sequence (P59540 whole entry): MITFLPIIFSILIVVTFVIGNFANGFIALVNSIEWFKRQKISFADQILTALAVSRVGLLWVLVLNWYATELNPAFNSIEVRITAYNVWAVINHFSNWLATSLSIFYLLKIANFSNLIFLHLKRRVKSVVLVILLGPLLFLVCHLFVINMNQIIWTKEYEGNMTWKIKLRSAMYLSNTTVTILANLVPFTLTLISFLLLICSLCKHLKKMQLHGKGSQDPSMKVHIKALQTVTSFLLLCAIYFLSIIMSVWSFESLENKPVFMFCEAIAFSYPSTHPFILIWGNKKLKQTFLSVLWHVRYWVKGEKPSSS

[2] = molecular target: T1, Taste receptor type 2 member 46; test: Antagonist activity at recombinant human N-terminal rat ST3 receptor-fused TAS2R46 expressed in HEK293T cells co-expressing Galpha16gust44 assessed as inhibition of 3 uM strychnine-induced intracellular calcium level by FLIPR assay; type: functional, cell-based

| EC50 [1] [µM] | IC50 [2] [µM] | Compound |
| --- | --- | --- |
| 1.1 |  | CC(=O)O[C@H]1C/C=C(\C)CCC2[C@H](C)C(=O)O[C@@H]2/C=C/1C (some centres undefined) |
| 8.6 |  | C=C1C(=O)O[C@@H]2/C=C(\C)CC/C=C(\C)CCC12 (some centres undefined) |
| 8.3 |  | C/C1=C\[C@H]2OC(=O)[C@@H](C)C2CC/C(C)=C/CC1 (some centres undefined) |
|  | 97.8 | C/C1=C\CC(=O)/C(C)=C/[C@H]2OC(=O)[C@@H](C)C2CC1 (some centres undefined) |
